Reference: patent US12448461B2, “ABCB5 ligands and substrates” (Children's Medical Center Corporation, priority 2018, dated 2025)

Legend:
ABCB5 [1] = assay: Surface plasmon resonance (SPR) binding and antibody competition on PIP1, PIP2 and PIP3 surfaces
[2] = target: T1, purified recombinant human ABCB5 (Homo sapiens, UniProt Q2M3G0); assay: Competition ELISA: PIP1, PIP2 or PIP3 binding to ABCB5 with increasing doses of competitor
T1 sequence (Q2M3G0 1-812 isoform Q2M3G0-1): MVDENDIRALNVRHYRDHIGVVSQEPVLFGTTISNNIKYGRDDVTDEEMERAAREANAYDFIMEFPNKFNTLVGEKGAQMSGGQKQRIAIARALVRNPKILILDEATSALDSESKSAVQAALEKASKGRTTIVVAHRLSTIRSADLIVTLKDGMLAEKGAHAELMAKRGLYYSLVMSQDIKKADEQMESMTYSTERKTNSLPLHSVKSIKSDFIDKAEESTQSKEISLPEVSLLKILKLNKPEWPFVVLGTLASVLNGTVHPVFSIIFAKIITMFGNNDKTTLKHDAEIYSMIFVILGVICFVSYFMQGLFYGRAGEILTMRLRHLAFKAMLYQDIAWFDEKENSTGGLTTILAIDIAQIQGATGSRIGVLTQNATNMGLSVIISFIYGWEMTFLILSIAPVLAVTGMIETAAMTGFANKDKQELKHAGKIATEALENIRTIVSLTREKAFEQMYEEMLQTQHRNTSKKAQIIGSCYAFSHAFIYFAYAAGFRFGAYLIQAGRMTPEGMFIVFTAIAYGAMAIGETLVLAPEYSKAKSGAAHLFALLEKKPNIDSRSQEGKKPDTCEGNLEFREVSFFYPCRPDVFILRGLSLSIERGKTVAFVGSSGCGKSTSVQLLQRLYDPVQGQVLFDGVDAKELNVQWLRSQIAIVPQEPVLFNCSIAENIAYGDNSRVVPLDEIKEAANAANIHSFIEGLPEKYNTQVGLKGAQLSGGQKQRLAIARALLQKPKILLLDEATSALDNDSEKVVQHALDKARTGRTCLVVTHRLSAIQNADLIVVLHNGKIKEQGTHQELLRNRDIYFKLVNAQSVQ
Protocol: ELISA plates coated with PIP1, PIP2 or PIP3 were incubated with purified recombinant human ABCB5 (P-glycoprotein ABCB5 [Homo sapiens] GenBank: AAO73470.1) for binding, in the absence or presence of increasing doses of PtdIns-(1,2-dioctanoyl), a synthetic analog of natural phosphatidylinositol (PtdIns) containing C8:0 fatty acids at the sn-1 and sn-2 positions (CAS Registry Number 899827-36-2).

[3] = system: Tyr::CreER; BrafCA; Ptenlox/lox genetic mouse melanoma model; assay: Vemurafenib treatment in 4-HT inducible genetic mouse melanoma model on ABCB5 WT or KO background; assay type: in vivo; details: vemurafenib-treated ABCB5 WT mice
murine Abcb5 = target: T2, murine Abcb5 (Mus musculus, UniProt B5X0E4); assay: ELISA: plates coated with PIP1, PIP2 or PIP3 incubated with wildtype mouse Abcb5-expressing skin tissue; assay type: binding; details: absent in Abcb5 knockout tissue
T2 construct: wildtype mouse Abcb5-expressing skin tissue; from tissue; host or cells: wild-type mouse skin tissue
T2 sequence (B5X0E4 1-1255): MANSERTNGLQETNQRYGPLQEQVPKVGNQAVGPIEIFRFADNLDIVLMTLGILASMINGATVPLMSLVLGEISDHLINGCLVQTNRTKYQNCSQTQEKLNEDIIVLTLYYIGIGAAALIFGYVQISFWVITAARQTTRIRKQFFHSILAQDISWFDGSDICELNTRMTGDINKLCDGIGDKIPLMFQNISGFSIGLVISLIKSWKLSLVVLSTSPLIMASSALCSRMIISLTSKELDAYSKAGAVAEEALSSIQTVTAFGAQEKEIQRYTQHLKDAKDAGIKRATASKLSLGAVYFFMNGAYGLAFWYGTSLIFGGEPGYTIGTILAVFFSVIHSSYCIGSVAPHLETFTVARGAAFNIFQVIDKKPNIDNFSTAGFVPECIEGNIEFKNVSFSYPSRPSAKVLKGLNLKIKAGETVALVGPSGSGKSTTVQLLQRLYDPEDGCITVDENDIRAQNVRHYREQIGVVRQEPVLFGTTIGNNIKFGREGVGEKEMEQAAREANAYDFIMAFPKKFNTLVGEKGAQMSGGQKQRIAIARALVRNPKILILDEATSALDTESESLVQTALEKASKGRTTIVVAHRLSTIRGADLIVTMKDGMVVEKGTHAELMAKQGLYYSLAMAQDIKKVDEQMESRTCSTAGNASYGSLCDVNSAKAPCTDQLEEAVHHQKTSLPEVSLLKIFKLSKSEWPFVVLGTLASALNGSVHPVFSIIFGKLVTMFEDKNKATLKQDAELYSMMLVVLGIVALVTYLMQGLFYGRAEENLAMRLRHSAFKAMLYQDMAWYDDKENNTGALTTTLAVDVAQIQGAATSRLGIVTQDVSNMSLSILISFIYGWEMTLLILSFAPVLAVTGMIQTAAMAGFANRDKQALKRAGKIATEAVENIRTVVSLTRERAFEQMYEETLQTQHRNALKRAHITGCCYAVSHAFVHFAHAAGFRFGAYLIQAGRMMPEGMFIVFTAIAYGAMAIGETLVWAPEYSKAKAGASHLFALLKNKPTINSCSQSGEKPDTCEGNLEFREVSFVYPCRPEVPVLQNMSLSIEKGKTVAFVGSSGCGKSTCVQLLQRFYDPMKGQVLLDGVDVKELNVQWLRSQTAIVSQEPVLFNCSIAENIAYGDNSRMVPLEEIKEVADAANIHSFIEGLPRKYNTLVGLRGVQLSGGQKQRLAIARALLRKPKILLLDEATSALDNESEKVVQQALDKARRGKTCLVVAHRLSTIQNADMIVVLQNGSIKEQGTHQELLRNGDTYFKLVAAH
Protocol: (§1) ELISA plates coated with PIP1, PIP2 or PIP3 were incubated with either purified recombinant human ABCB5 isoform 2 (812 aa, NCBI Reference Sequence: NP_848654.3), wildtype mouse Abcb5-expressing skin tissue, or Abcb5 non-expressing skin tissue derived from ABCB5 knockout mice (as a specificity control), followed by bound ABCB5 detection using a murine ABCB5-specific monoclonal antibody (Ksander et al Nature 2014). […] Similar results were obtained using the murine ABCB5 mAb clone 3C2-1D12 (Frank NY et al. J Biol Chem. 2003) as a detection antibody.

ABCB5 [4] = target: T3, ABCB5 (Homo sapiens, UniProt Q2M3G0); assay: Immunoprecipitation with anti-PIP2 or anti-PIP3 antibody from ABCB5-expressing melanoma cells, ABCB5 immunoblot; assay type: binding
T3 construct: Immunoprecipitation from human ABCB5-expressing melanoma cells; endogenous in cells
T3 sequence (Q2M3G0 1-1257): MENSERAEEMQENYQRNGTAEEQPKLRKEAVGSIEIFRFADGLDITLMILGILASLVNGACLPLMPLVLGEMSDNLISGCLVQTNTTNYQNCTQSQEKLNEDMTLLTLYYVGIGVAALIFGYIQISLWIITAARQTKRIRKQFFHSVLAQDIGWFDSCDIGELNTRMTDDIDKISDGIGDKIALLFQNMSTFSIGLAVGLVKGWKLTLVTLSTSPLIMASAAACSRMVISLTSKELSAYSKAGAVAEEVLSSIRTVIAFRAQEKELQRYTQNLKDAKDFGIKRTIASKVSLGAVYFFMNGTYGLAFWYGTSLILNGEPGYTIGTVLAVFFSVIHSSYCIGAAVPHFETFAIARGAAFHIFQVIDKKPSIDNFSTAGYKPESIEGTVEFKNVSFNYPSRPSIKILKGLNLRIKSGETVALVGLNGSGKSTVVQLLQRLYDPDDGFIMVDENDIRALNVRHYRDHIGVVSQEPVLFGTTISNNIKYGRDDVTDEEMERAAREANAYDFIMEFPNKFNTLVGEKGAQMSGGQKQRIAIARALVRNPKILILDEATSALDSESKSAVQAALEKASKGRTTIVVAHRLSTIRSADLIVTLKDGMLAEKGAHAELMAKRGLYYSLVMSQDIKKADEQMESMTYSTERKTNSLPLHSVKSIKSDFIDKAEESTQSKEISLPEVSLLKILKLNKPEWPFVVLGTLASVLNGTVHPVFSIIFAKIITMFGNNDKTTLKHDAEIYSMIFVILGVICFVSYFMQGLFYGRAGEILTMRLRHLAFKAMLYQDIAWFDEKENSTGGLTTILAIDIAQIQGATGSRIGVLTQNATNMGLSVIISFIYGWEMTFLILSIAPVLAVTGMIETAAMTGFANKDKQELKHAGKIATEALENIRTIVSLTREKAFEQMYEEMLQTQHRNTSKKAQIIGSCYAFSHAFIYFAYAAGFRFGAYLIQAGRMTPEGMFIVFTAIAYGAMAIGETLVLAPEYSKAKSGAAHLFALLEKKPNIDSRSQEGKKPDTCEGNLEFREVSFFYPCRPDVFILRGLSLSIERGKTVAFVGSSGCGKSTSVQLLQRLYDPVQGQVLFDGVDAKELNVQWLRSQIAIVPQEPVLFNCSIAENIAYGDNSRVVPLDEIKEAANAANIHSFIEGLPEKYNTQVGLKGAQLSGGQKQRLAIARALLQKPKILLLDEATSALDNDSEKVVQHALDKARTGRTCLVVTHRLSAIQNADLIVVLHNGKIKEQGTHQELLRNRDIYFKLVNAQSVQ
Description: PIP2 pulldown was confirmed using immunoblotting with PIP2 antibody in FIG. 1A (lower panel).

[5] = target: T4, recombinant human ABCB5 isoform 2 (Homo sapiens, UniProt Q2M3G0); assay: ELISA: plates coated with PIP1, PIP2 or PIP3 incubated with recombinant human ABCB5 isoform 2; assay type: binding
T4 sequence (Q2M3G0 446-1257): T1 sequence (Q2M3G0 1-812 isoform Q2M3G0-1)
Protocol: as §1

CCCCCCCC(=O)OC[C@H](COP(=O)(O)O[C@@H]1[C@H](O)[C@H](O)[C@@H](OP(=O)(O)O)[C@H](OP(=O)(O)O)[C@H]1O)OC(=O)CCCCCCC [PI (4,5) P2, diC8]
binding to ABCB5 by SPR (ABCB5 [1]): shown to bind

CCCCCCCC(=O)OCC(COP(=O)(O)OC1C(O)C(O)C(O)C(O)C1O)OC(=O)CCCCCCC (stereo not drawn) [PtdIns-(1,2-dioctanoyl)]
inhibition of binding of PIP1, PIP2 or PIP3 to ABCB5 ([2]; increasing doses): competitively inhibit
concentration of apparent saturation of the inhibitory effect ([2]; inhibition of PIP1, PIP2 or PIP3 binding to ABCB5): 0.1 mM

CCCS(=O)(=O)Nc1ccc(F)c(C(=O)c2c[nH]c3ncc(-c4ccc(Cl)cc4)cc23)c1F [vemurafenib]
formation of vemurafenib-resistant tumors [3]: 100%

PIP3
binding to ABCB5 by SPR (ABCB5 [1]): binding
binding to murine Abcb5 (murine Abcb5): bound
co-precipitation of ABCB5 on lipid pulldown (ABCB5 [4]): co-precipitation of ABCB5 protein
relative efficiency of binding to ABCB5 ([5]; PIP2 and PIP3 compared with PIP1): more efficient
binding to recombinant human ABCB5 ([5]; detection with ABCB5-specific monoclonal antibody): bound
